Source: PubChem BioAssay AID1259407 (Chemical Carcinogenesis Research Information System (CCRIS), 2018)
The source made the active and inactive calls. The rule behind the calls is not given here.

Tested on: CCRIS mutagenicity, Ames/micronucleus/aberration tests
Experiment: CCRIS mutagenicity studies
[1] = Test System: AMES SALMONELLA TYPHIMURIUM, Strain/Indicator: TA98, Metabolic Activation: NONE, Method: STANDARD PLATE
[2] = Test System: AMES SALMONELLA TYPHIMURIUM, Strain/Indicator: TA100, Metabolic Activation: RAT, LIVER, S-9, AROCLOR 1254, Method: STANDARD PLATE
[3] = Test System: AMES SALMONELLA TYPHIMURIUM, Strain/Indicator: TA100, Metabolic Activation: NONE, Method: PREINCUBATION
[4] = Test System: AMES SALMONELLA TYPHIMURIUM, Strain/Indicator: TA1535, Metabolic Activation: NONE, Method: PREINCUBATION
[5] = Test System: AMES SALMONELLA TYPHIMURIUM, Strain/Indicator: TA1537, Metabolic Activation: NONE, Method: PREINCUBATION
[6] = Test System: AMES SALMONELLA TYPHIMURIUM, Strain/Indicator: TA1538, Metabolic Activation: NONE, Method: PREINCUBATION

`c1cnc2c(c1)CCC1OC21` (centres undefined) was tested, and the mutagenic call (Test System: AMES SALMONELLA TYPHIMURIUM, Strain/Indicator: TA100, Metabolic Activation: NONE, Method: STANDARD PLATE) was “inactive; negative” and the mutagenic call (Test System: AMES SALMONELLA TYPHIMURIUM, Strain/Indicator: TA100, Metabolic Activation: RAT, LIVER, S-9, AROCLOR 1254 (10 OR 20%), Method: STANDARD PLATE) was “inactive; negative”.

In the case of `Cc1ccc2c(c1Nc1ccccc1)C(=O)c1ccccc1C2=O`, the mutagenic call [1] is reported as “inactive; negative”, the mutagenic call (Test System: AMES SALMONELLA TYPHIMURIUM, Strain/Indicator: TA98, Metabolic Activation: RAT, LIVER, S-9, AROCLOR 1254, Method: STANDARD PLATE) is reported as “inactive; negative” and the mutagenic call [2] is reported as “active; positive”. For the same molecule, the mutagenic call (Test System: AMES SALMONELLA TYPHIMURIUM, Strain/Indicator: TA1535, Metabolic Activation: NONE, Method: STANDARD PLATE) was “inactive; negative”, the mutagenic call (Test System: AMES SALMONELLA TYPHIMURIUM, Strain/Indicator: TA1535, Metabolic Activation: RAT, LIVER, S-9, AROCLOR 1254, Method: STANDARD PLATE) was “inactive; negative” and the mutagenic call (Test System: AMES SALMONELLA TYPHIMURIUM, Strain/Indicator: TA1537, Metabolic Activation: NONE, Method: STANDARD PLATE) was “inactive; negative”. For the same molecule, the mutagenic call (Test System: AMES SALMONELLA TYPHIMURIUM, Strain/Indicator: TA1537, Metabolic Activation: RAT, LIVER, S-9, AROCLOR 1254, Method: STANDARD PLATE) was “inactive; negative”, the mutagenic call (Test System: AMES SALMONELLA TYPHIMURIUM, Strain/Indicator: TA1538, Metabolic Activation: NONE, Method: STANDARD PLATE) was “inactive; negative” and the mutagenic call (Test System: AMES SALMONELLA TYPHIMURIUM, Strain/Indicator: TA1538, Metabolic Activation: RAT, LIVER, S-9, AROCLOR 1254, Method: STANDARD PLATE) was “inactive; negative”.

`OCC(CO)(CO)CO` was tested, and the mutagenic call (Test System: AMES SALMONELLA TYPHIMURIUM, Strain/Indicator: TA98, Metabolic Activation: NONE, Method: PREINCUBATION) was “inactive; negative”, the mutagenic call (Test System: AMES SALMONELLA TYPHIMURIUM, Strain/Indicator: TA98, Metabolic Activation: RAT, LIVER, S-9, KC 500, Method: PREINCUBATION) was “inactive; negative” and the mutagenic call (Test System: AMES SALMONELLA TYPHIMURIUM, Strain/Indicator: TA98, Metabolic Activation: RAT, LIVER, S-9, SODIUM PHENOBARBITAL AND 5,6-BENZOFLAVONE, Method: PREINCUBATION) was “inactive; negative”. The mutagenic call [3] was “inactive; negative”, the mutagenic call (Test System: AMES SALMONELLA TYPHIMURIUM, Strain/Indicator: TA100, Metabolic Activation: RAT, LIVER, S-9, KC 500, Method: PREINCUBATION) was “inactive; negative” and the mutagenic call (Test System: AMES SALMONELLA TYPHIMURIUM, Strain/Indicator: TA100, Metabolic Activation: RAT, LIVER, S-9, SODIUM PHENOBARBITAL AND 5,6-BENZOFLAVONE, Method: PREINCUBATION) was “inactive; negative”. For the same molecule, the mutagenic call (Test System: AMES SALMONELLA TYPHIMURIUM, Strain/Indicator: TA102, Metabolic Activation: NONE, Method: PREINCUBATION) was “inactive; negative”, the mutagenic call (Test System: AMES SALMONELLA TYPHIMURIUM, Strain/Indicator: TA102, Metabolic Activation: RAT, LIVER, S-9, SODIUM PHENOBARBITAL AND 5,6-BENZOFLAVONE, Method: PREINCUBATION) was “inactive; negative” and the mutagenic call (Test System: AMES SALMONELLA TYPHIMURIUM, Strain/Indicator: TA104, Metabolic Activation: NONE, Method: PREINCUBATION) was “inactive; negative”. For the same molecule, the mutagenic call (Test System: AMES SALMONELLA TYPHIMURIUM, Strain/Indicator: TA104, Metabolic Activation: RAT, LIVER, S-9, SODIUM PHENOBARBITAL AND 5,6-BENZOFLAVONE, Method: PREINCUBATION) was “inactive; negative”, the mutagenic call [4] was “inactive; negative” and the mutagenic call (Test System: AMES SALMONELLA TYPHIMURIUM, Strain/Indicator: TA1535, Metabolic Activation: RAT, LIVER, S-9, KC 500, Method: PREINCUBATION) was “inactive; negative”. The mutagenic call (Test System: AMES SALMONELLA TYPHIMURIUM, Strain/Indicator: TA1535, Metabolic Activation: RAT, LIVER, S-9, SODIUM PHENOBARBITAL AND 5,6-BENZOFLAVONE, Method: PREINCUBATION) was “inactive; negative”, the mutagenic call [5] was “inactive; negative” and the mutagenic call (Test System: AMES SALMONELLA TYPHIMURIUM, Strain/Indicator: TA1537, Metabolic Activation: RAT, LIVER, S-9, KC 500, Method: PREINCUBATION) was “inactive; negative”. The mutagenic call (Test System: AMES SALMONELLA TYPHIMURIUM, Strain/Indicator: TA1537, Metabolic Activation: RAT, LIVER, S-9, SODIUM PHENOBARBITAL AND 5,6-BENZOFLAVONE, Method: PREINCUBATION) was “inactive; negative”, the mutagenic call [6] was “inactive; negative” and the mutagenic call (Test System: AMES SALMONELLA TYPHIMURIUM, Strain/Indicator: TA1538, Metabolic Activation: RAT, LIVER, S-9, KC 500, Method: PREINCUBATION) was “inactive; negative”. For the same molecule, the mutagenic call (Test System: E. COLI, Strain/Indicator: WP2UVRA/PKM101, Metabolic Activation: NONE, Method: PREINCUBATION) was “inactive; negative”, the mutagenic call (Test System: E. COLI, Strain/Indicator: WP2UVRA/PKM101, Metabolic Activation: RAT, LIVER, S-9, SODIUM PHENOBARBITAL AND 5,6-BENZOFLAVONE, Method: PREINCUBATION) was “inactive; negative” and the mutagenic call (Test System: E. COLI, Strain/Indicator: WP2UVRA, Metabolic Activation: NONE, Method: PREINCUBATION) was “inactive; negative”. The mutagenic call (Test System: E. COLI, Strain/Indicator: WP2 UVRA, Metabolic Activation: RAT, LIVER, S-9, KC 500, Method: PREINCUBATION) was “inactive; negative” and the mutagenic call (Test System: E. COLI, Strain/Indicator: WP2UVRA, Metabolic Activation: RAT, LIVER, S-9, SODIUM PHENOBARBITAL AND 5,6-BENZOFLAVONE, Method: PREINCUBATION) was “inactive; negative”.

`O=C(O)c1ccc([N+](=O)[O-])cc1` was tested, and the mutagenic call (Test System: AMES SALMONELLA TYPHIMURIUM, Strain/Indicator: TA98, Metabolic Activation: HAMSTER, LIVER, S-9, AROCLOR 1254 (10%), Method: PREINCUBATION) was “inactive; negative”, the mutagenic call [1] was “active; positive” and the mutagenic call (Test System: AMES SALMONELLA TYPHIMURIUM, Strain/Indicator: TA98, Metabolic Activation: RAT, LIVER, S-9, AROCLOR 1254 (10%), Method: PREINCUBATION) was “inactive; negative”. The mutagenic call (Test System: AMES SALMONELLA TYPHIMURIUM, Strain/Indicator: TA98, Metabolic Activation: RAT, LIVER, S-9, KANECHLOR 500, Method: PREINCUBATION) was “inactive; negative”, the mutagenic call (Test System: AMES SALMONELLA TYPHIMURIUM, Strain/Indicator: TA100, Metabolic Activation: HAMSTER, LIVER, S-9, AROCLOR 1254 (10%), Method: PREINCUBATION) was “active; positive” and the mutagenic call (Test System: AMES SALMONELLA TYPHIMURIUM, Strain/Indicator: TA100, Metabolic Activation: HAMSTER, LIVER, S-9, AROCLOR 1254, FLAVIN MONONUCLEOTIDE, Method: PREINCUBATION) was “active; positive”. For the same molecule, the mutagenic call (Test System: AMES SALMONELLA TYPHIMURIUM, Strain/Indicator: TA100, Metabolic Activation: HAMSTER, LIVER, S-9, AROCLOR 1254, Method: PREINCUBATION) was “active; positive”, the mutagenic call (Test System: AMES SALMONELLA TYPHIMURIUM, Strain/Indicator: TA100, Metabolic Activation: RAT, LIVER, S-9, AROCLOR 1254 (10%), Method: PREINCUBATION) was “active; positive” and the mutagenic call (Test System: AMES SALMONELLA TYPHIMURIUM, Strain/Indicator: TA100, Metabolic Activation: RAT, LIVER, S-9, AROCLOR 1254, FLAVIN MONONUCLEOTIDE, Method: PREINCUBATION) was “active; positive”. For the same molecule, the mutagenic call [2] was “inactive; negative”, the mutagenic call (Test System: AMES SALMONELLA TYPHIMURIUM, Strain/Indicator: TA100, Metabolic Activation: RAT, LIVER, S-9, KANECHLOR 500, Method: PREINCUBATION) was “active; positive” and the mutagenic call (Test System: AMES SALMONELLA TYPHIMURIUM, Strain/Indicator: TA1535, Metabolic Activation: HAMSTER, LIVER, S-9, AROCLOR 1254 (10%), Method: PREINCUBATION) was “inactive; negative”. For the same molecule, the mutagenic call [4] was “inactive; negative”, the mutagenic call (Test System: AMES SALMONELLA TYPHIMURIUM, Strain/Indicator: TA1535, Metabolic Activation: RAT, LIVER, S-9, AROCLOR 1254 (10%), Method: PREINCUBATION) was “inactive; negative” and the mutagenic call (Test System: AMES SALMONELLA TYPHIMURIUM, Strain/Indicator: TA1537, Metabolic Activation: HAMSTER, LIVER, S-9, AROCLOR 1254 (10%), Method: PREINCUBATION) was “inactive; negative”. For the same molecule, the mutagenic call [5] was “inactive; negative”, the mutagenic call (Test System: AMES SALMONELLA TYPHIMURIUM, Strain/Indicator: TA1537, Metabolic Activation: RAT, LIVER, S-9, AROCLOR 1254 (10%), Method: PREINCUBATION) was “inactive; negative” and the mutagenic call [6] was “active; positive”.

For `Cc1cc(=O)oc2cc3c(cc12)C1(C)OOC1(C)O3` (centres undefined), the mutagenic call [3] was “active; positive”.

In the case of `CC(=O)Nc1nnc(-c2ccc([N+](=O)[O-])o2)s1`, the mutagenic call (Test System: AMES SALMONELLA TYPHIMURIUM, Strain/Indicator: TA100, Metabolic Activation: RAT, LIVER, S-9, KC500 OR PHENOBARBITAL, Method: LIQUID SUSPENSION) is reported as “active; positive”.
